This assay concerns the target Neuronal acetylcholine receptor subunit alpha-7 (Homo sapiens, UniProt P36544). As to the kind of experiment: Positive allosteric modulation at human alpha7 nACHR expressed in Xenopus oocyte assessed as potentiation of ACh-induced current at holding potential of -80 mV measured as ACh EC50 at 1 uM by electrophysiology (Rvb = 176 uM).

Neuronal acetylcholine receptor subunit alpha-7, sequence (P36544 whole entry): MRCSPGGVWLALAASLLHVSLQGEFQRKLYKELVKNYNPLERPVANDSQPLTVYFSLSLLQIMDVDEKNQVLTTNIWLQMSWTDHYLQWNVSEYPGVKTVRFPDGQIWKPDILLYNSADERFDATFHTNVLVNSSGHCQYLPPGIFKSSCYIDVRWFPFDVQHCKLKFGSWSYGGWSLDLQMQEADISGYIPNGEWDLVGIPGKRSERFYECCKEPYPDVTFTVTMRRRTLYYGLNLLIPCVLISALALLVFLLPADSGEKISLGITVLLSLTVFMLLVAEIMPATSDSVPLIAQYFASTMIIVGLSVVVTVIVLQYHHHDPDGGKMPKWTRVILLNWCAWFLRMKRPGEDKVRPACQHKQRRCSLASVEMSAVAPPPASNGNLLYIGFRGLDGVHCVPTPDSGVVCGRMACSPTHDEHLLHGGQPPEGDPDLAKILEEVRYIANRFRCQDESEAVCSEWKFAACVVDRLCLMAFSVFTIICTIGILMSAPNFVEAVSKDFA

As a reminder, the EC50 is the concentration at which the effect is half-maximal. Take `O=C(/C=C/c1ccc(O)cc1)c1cc(O)ccc1O`: the half-maximal effective concentration (EC50) came to 56 µM.

As to `O=C(/C=C/c1ccc(O)cc1O)c1cc(O)ccc1O`, the EC50 came out at 125 µM.

The values above are taken from BindingDB's records for doi:10.1016/j.ejmech.2014.09.039 (2014).
